Experimental data as given in ChEMBL document CHEMBL1201862, “PubChem BioAssay data set” (2004).
Blank lines part the entries; values can stand above or below the compound they belong to. The source made the active and inactive calls.

Tests used:
[1] = molecular target: Peroxisome proliferator-activated receptor gamma/Nuclear receptor coactivator 2 (Homo sapiens, UniProt P37231); assay type: functional;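 also: agonist potency for raising coactivator recruitment to the receptor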
[2] = molecular target: Estrogen receptor beta (Homo sapiens, UniProt Q92731); experiment: ERβ–SRC-3 coactivator interaction inhibitors, confirmation, orthogonal assay, biochemical, ELISA, streptavidin-HRP readout (AID 1060)
[3] = molecular target: T1, Hexokinase HKDC1 (Homo sapiens, UniProt Q2TB90); experiment: HKDC1 hexokinase inhibitors, dose response, biochemical, W721R variant (AID 504729); assay type: functional
T1 sequence (Q2TB90 whole entry): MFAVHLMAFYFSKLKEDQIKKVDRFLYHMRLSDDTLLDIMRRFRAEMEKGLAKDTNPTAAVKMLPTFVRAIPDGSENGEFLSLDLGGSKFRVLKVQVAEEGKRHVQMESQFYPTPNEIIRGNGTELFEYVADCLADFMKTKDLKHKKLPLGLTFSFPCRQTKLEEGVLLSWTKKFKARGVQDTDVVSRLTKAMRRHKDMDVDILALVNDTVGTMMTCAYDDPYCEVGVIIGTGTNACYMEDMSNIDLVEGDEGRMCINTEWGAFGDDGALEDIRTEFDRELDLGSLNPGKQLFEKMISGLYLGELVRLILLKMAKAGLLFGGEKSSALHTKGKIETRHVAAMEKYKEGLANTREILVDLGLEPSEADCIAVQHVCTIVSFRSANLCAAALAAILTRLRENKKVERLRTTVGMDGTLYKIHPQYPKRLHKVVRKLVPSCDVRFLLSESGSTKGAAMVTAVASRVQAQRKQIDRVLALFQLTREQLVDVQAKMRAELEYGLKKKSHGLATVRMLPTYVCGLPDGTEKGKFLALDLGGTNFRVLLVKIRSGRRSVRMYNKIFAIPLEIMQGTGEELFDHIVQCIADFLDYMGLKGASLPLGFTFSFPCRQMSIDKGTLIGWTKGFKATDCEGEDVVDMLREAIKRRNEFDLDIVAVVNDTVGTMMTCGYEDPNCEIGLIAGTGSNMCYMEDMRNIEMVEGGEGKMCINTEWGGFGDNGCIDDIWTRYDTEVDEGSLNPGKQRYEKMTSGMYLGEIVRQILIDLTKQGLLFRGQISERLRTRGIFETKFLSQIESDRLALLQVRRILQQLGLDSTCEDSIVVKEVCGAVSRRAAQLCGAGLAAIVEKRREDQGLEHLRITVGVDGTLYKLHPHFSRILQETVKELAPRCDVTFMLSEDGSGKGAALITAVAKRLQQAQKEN

[4] = Luminescence-based cell-based high throughput dose response assay to identify activators of the DAF-12 from the parasite S. stercoralis (ssDAF-12).; assay type: functional
[5] = molecular target: Rho-associated protein kinase 2 (Homo sapiens, UniProt O75116); assay type: functional
[6] = molecular target: Mitogen-activated protein kinase 8 (Homo sapiens, UniProt P45983); assay type: functional;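 also: value comes from one member of a kinome-wide kinase profiling panel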
[7] = molecular target: Serine/threonine-protein kinase PAK 1 (Homo sapiens, UniProt Q13153); assay type: functional
[8] = molecular target: Testis-specific serine/threonine-protein kinase 1 (Homo sapiens, UniProt Q9BXA7); assay type: functional
[9] = molecular target: Proto-oncogene tyrosine-protein kinase Src (Homo sapiens, UniProt P12931); assay type: functional;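 also: SRC entry within a kinome-wide kinase profiling panel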
[10] = molecular target: Hepatocyte growth factor receptor (Homo sapiens, UniProt P08581); assay type: functional;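 also: kinase panel profiling across the kinome, with MET as the panel member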
[11] = molecular target: Receptor-type tyrosine-protein kinase FLT3 (Homo sapiens, UniProt P36888); assay type: functional;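 also: FLT3 was tested as one member of a kinome-wide kinase panel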
[12] = molecular target: Tyrosine-protein kinase ABL1 (Homo sapiens, UniProt P00519); assay type: functional
[13] = molecular target: Vascular endothelial growth factor receptor 2 (Homo sapiens, UniProt P35968); assay type: functional
[14] = molecular target: Insulin-like growth factor 1 receptor (Homo sapiens, UniProt P08069); experiment: Navigating the Kinome. Panel member name: IGF1R; assay type: functional
[15] = molecular target: Aurora kinase B (Homo sapiens, UniProt Q96GD4); assay type: functional
[16] = molecular target: cAMP-dependent protein kinase catalytic subunit alpha (Homo sapiens, UniProt P17612); assay type: functional
[17] = molecular target: Delta-type opioid receptor (Homo sapiens, UniProt P41143); experiment: HTS Image-Based Screen for Antagonists of the DOR Receptor. [Related pubchem assays (depositor defined):AID1777, AID1785, AID1786, AID2133]; assay type: functional;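 also: U2OS cells expressing DOR stimulated with 100 nM SNC80 agonist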
[18] = molecular target: T2, Type-1 angiotensin II receptor (Homo sapiens, UniProt P30556); experiment: AT1 receptor antagonists, dose response, selectivity assay for APJ receptor antagonist project, cell-based, uHTS hits (AID 463214); assay type: functional;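 also: antagonist potency against angiotensin II stimulated AT1 response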
T2 sequence (P30556 whole entry): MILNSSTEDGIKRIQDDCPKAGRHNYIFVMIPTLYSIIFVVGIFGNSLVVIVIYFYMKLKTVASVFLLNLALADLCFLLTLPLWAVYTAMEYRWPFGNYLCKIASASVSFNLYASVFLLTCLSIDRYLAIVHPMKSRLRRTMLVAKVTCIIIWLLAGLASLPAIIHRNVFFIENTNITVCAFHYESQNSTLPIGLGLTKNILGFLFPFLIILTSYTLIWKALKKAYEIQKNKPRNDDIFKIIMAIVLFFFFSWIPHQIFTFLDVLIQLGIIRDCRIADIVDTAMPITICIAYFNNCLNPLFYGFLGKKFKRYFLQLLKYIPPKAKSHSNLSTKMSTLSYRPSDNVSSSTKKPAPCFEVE

[19] = molecular target: T3, Sphingosine 1-phosphate receptor 4 (Homo sapiens, UniProt O95977); experiment: Fluorescence dose response cell-based high throughput screening assay for antagonists of the Sphingosine 1-Phosphate Receptor 4 (S1P4). [Related pubchem assays: 1524 (Confirmation in triplicates.), 1510 (Primary screen.)]; assay type: functional
T3 sequence (O95977 whole entry): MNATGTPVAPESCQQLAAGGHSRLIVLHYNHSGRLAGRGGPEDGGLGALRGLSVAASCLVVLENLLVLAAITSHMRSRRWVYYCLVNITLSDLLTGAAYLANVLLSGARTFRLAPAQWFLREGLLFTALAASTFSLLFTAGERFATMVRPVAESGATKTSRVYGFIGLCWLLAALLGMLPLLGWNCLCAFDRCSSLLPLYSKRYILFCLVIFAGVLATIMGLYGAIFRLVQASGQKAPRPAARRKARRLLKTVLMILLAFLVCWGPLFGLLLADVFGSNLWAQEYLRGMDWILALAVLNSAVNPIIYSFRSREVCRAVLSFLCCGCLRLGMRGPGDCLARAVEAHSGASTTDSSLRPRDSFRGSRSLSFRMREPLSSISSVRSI

Chain of Mitogen-activated protein kinase 8 (P45983 whole entry): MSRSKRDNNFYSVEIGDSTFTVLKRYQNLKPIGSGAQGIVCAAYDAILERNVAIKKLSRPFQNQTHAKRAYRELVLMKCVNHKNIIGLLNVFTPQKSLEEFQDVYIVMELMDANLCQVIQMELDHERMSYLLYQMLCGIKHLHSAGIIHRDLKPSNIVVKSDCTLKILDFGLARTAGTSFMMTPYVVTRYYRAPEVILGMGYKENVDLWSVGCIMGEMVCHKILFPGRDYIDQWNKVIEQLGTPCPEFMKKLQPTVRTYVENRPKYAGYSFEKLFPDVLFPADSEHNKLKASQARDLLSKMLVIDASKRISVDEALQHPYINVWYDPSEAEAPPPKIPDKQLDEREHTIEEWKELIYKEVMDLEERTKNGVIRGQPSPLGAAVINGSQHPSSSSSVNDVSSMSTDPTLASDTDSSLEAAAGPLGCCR
Chain of Testis-specific serine/threonine-protein kinase 1 (Q9BXA7 whole entry): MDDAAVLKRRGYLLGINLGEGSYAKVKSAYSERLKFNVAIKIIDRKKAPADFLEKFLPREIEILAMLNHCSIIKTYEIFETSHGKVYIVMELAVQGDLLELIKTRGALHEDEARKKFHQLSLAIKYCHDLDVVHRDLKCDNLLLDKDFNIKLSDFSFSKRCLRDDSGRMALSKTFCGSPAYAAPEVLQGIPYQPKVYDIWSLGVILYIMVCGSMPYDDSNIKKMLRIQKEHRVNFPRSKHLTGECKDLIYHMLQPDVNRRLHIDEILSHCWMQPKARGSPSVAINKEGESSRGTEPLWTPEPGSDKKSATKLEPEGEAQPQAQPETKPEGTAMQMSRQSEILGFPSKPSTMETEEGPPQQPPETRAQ
Chain of Peroxisome proliferator-activated receptor gamma/Nuclear receptor coactivator 2 (P37231 whole entry): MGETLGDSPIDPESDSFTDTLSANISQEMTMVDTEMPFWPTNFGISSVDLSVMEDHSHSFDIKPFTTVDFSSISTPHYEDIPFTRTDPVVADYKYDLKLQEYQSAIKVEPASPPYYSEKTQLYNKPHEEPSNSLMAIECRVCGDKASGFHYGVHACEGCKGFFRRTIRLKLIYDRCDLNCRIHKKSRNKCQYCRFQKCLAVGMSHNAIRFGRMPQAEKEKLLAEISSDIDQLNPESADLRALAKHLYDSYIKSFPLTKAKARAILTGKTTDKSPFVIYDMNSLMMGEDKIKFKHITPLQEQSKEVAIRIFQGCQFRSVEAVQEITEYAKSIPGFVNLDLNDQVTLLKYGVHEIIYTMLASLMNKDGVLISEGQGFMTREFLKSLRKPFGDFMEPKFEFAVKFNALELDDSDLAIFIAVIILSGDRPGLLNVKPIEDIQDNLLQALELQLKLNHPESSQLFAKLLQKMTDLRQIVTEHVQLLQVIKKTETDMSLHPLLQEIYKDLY
Chain of Peroxisome proliferator-activated receptor gamma/Nuclear receptor coactivator 2 (Q15596 whole entry, further chain): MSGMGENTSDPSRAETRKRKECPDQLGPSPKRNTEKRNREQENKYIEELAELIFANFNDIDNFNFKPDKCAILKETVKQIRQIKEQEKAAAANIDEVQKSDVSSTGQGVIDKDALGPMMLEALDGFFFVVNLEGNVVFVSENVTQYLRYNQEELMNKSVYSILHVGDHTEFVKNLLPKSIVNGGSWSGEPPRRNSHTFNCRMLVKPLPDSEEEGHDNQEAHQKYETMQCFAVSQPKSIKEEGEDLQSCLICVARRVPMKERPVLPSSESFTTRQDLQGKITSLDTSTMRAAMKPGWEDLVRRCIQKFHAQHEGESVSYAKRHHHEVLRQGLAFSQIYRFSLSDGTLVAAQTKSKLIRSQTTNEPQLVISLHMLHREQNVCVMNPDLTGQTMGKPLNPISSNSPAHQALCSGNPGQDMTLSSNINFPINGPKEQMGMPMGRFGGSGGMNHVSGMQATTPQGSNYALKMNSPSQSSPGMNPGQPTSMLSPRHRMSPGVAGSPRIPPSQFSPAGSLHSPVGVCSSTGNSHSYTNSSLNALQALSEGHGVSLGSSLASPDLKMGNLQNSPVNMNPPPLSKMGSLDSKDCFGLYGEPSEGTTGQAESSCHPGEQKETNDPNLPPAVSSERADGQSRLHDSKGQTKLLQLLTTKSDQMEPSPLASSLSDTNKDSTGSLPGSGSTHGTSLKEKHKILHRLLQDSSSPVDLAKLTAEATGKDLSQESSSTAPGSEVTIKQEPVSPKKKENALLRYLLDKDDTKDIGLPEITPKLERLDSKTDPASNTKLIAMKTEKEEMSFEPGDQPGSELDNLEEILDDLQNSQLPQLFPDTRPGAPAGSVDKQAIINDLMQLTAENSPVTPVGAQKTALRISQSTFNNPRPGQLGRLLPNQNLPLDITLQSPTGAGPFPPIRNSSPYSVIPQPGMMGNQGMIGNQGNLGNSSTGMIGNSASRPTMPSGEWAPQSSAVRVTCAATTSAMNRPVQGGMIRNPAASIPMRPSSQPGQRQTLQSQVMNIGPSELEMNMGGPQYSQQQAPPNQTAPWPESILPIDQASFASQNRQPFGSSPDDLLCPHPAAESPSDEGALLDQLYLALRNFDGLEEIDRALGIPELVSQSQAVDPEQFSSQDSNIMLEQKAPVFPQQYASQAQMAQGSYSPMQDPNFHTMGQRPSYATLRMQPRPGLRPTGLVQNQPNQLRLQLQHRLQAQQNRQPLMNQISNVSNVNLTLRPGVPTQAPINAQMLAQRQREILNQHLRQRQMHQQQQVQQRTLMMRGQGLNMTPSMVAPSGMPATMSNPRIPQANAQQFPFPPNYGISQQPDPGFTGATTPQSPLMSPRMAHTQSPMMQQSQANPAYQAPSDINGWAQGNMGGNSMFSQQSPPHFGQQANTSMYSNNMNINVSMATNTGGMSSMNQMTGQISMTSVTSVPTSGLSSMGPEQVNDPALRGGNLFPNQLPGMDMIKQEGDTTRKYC
Chain of Aurora kinase B (Q96GD4 whole entry): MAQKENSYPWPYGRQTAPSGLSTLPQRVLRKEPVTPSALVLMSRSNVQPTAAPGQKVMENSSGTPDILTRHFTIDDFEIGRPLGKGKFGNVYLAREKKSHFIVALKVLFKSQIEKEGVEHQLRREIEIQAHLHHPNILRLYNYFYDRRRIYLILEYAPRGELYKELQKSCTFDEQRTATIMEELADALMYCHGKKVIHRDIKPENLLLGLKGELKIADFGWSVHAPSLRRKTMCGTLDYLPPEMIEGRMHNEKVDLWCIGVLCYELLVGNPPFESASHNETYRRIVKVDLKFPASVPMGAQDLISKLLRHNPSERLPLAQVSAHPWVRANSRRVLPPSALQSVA
Chain of Insulin-like growth factor 1 receptor (P08069 31-736 limits assumed): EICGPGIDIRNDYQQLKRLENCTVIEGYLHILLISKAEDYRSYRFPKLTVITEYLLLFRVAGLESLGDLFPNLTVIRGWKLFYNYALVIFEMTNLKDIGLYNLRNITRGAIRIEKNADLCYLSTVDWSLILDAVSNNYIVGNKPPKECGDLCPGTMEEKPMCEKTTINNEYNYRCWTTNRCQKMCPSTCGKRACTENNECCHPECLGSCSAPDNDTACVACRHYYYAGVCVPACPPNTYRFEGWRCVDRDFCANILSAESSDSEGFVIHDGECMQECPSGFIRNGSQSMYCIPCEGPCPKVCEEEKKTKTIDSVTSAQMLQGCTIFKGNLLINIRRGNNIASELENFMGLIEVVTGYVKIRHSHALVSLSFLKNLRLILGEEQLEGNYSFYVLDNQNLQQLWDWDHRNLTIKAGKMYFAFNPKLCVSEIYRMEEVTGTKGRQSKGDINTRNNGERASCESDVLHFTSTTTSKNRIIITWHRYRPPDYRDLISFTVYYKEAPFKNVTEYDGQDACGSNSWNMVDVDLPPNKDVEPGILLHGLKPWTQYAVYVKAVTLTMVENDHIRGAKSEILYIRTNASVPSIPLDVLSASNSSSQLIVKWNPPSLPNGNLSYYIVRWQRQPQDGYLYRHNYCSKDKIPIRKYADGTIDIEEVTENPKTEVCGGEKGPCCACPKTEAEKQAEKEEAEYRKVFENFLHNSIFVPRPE
Chain of Insulin-like growth factor 1 receptor (P08069 741-1367 limits assumed): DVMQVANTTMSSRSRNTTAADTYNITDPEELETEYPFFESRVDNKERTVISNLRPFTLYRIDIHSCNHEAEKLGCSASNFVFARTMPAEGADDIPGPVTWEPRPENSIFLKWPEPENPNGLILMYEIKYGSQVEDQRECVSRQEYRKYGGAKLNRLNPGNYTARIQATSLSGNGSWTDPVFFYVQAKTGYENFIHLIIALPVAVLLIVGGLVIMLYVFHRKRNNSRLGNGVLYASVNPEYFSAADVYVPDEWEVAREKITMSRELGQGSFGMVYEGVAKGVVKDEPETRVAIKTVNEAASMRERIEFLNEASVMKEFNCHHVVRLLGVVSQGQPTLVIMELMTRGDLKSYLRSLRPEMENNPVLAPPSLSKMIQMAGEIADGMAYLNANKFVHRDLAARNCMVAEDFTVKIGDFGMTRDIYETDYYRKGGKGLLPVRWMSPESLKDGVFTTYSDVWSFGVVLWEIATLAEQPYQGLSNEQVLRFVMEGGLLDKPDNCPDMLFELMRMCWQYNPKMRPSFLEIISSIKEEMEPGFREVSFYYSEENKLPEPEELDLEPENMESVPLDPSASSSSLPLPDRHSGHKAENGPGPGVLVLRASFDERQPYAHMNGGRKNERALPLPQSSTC
Chain of Serine/threonine-protein kinase PAK 1 (Q13153 whole entry): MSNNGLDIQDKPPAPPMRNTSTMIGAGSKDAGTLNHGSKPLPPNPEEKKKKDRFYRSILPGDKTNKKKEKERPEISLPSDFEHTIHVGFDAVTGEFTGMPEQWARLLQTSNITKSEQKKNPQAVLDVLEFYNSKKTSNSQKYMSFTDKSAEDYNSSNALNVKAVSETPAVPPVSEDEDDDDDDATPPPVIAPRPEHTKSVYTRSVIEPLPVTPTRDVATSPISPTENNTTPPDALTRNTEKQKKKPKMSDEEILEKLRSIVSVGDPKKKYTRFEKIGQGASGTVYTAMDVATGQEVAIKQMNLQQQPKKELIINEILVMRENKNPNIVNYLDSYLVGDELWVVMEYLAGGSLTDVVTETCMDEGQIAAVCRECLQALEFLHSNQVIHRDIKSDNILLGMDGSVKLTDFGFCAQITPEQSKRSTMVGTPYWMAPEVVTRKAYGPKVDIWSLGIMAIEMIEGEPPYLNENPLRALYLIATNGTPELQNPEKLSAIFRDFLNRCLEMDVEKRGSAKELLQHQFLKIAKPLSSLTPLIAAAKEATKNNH

Compound: CN(C)c1ncc(C2=C(Cl)C(=O)C(N3CCCC3)=C(Cl)C2=O)s1
EC50 [1]: > 79400 nM (not active)
IC50 [2]: 20600 nM (not active)

Compound: Cc1ccc(C(=O)c2c(C)oc3c2C(=O)C(=O)c2ccccc2-3)cc1
IC50 [3]: 6940 nM (active)

Compound: Cc1cnc(NC(=O)c2sc3ccccc3c2Cl)s1
IC50 [4]: > 67500 nM (inactive)

Ki [5]: 794 nM (active)
Ki [6]: 1000 nM (active)
Ki [7]: > 10000 nM (inactive)
Ki [8]: > 1580 nM (inactive)
Ki [9]: > 2000 nM (inactive)
Ki [10]: > 3160 nM (inactive)
Ki [11]: 158 nM (active)
Ki [12]: > 631 nM (inactive)
Ki [13]: > 7940 nM (inactive)
Ki [14]: > 2000 nM (inactive)
Ki [15]: 2510 nM (active)
Ki [16]: > 7940 nM (inactive)
Compound: O=C1NC(=S)SC1=C1C(=O)Nc2ccc(Br)cc21

Compound: Cc1ccc(Nc2cc(C)nn2-c2nc(C)cc(O)n2)cc1
IC50 [17]: > 32000 nM (inactive)
IC50 [18]: 1770 nM (active)
IC50 [19]: 170 nM (active)
